The values below are quoted from earlier work in patent US7208580B2, “Atomic structure of the hemalbumin complex and its use in designing therapeutic compounds” (New Century Pharmaceuticals, Inc., priority 2002, dated 2007).

This data set concerns the target human albumin (Homo sapiens, UniProt P02768).

Sequence of human albumin (P02768 25-609): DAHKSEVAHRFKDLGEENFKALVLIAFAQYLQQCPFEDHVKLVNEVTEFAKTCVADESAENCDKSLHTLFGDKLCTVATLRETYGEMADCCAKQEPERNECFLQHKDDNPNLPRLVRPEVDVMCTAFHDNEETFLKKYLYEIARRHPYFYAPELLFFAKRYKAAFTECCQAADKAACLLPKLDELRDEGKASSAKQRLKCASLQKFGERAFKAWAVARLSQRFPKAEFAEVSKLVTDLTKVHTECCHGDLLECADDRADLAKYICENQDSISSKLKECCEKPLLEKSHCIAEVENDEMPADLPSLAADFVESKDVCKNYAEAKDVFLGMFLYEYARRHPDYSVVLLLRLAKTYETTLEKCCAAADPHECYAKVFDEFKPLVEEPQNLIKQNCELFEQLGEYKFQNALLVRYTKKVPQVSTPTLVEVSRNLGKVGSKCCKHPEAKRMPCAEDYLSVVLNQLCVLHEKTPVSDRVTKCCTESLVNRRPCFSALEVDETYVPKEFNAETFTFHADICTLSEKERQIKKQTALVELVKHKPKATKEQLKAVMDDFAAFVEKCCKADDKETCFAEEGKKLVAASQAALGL

As for Fe^III Protoporphyrin-IX (Cl) [Hemin], the “KA, single high affinity site” value (hemin binding to human albumin, association constant from reference (9)) was 1.1e+08 M⁻¹. With `C=CC1=C(C)c2cc3[nH]c(cc4nc(cc5[nH]c(cc1n2)c(C)c5CCC(=O)O)C(CCC(=O)O)=C4C)c(C)c3C=C` [protoporphyrin, Fe^III-Protoporphyrin-IX], the “binding constants for protoporphyrin at the specialized high affinity site” value (albumins from primates, printed as '1×10^8 Ka') is given as ~1×10^8.
